US4849428A, “Cyclic anti-inflammatory derivatives of di-tert-butylphenol compounds, compositions and use” (The Procter & Gamble Company, priority 1987, dated 1989)

Assays:
[1] = tested on: Carrageenan Rat Paw Edema; assay: Carrageenan Rat Paw Edema Test; type: in vivo, Male Sprague-Dawley rats; conditions: for Percent Inhibition at 100 mg/kg dose p.o.: 100 mg/kg p.o. 1 h before carrageenan, paw volume 4 h after carrageenan, relative to control; for ED35: oral, by regression analysis, read-out: ID35
Procedure: Carrageenan Rat Paw Edema Test
Male Sprague-Dawley rats (Charles River Laboratories) are weighed and food fasted overnight. The animals are then divided into four to six groups of six animals each according to body weights (average about 145 g) so that each group has about the same average body weight (within 10 g).
The following morning animals are dosed with the test compound and then placed in individual cages. For oral dosing, the drug is suspended in 0.5% methyl cellulose with 2% Tween 80, and delivered via stomach tube in a 5 ml volume.
Paw volumes (0 time) are determined on both hind paws with a mercury displacement device equipped with a transducer and digitizer. One hour after dosing the test compound, the animals are placed in a plastic restrainer and 50 ul of a 1% (w/w) carrageenan solution in 0.9% saline is injected into the ventral surface of the left rear paw. Four hours after the carrageenan injection, the paw volumes are again determined.
The results are expressed as percent inhibition of the mean paw volume of the test group relative to the control group. Statistical differences are determined by one way analysis of variance. ID35 values are determined by regression analysis.

[2] = tested on: osteoarthritis; assay: Oral tablets in patients with osteoarthritis; type: in vivo, patient; conditions: tablet, twice daily
Procedure: (§1) Tablets are prepared by conventional methods, such as mixing and direct compaction, formulated as follows: […]

[3] = tested on: rheumatoid arthritis; assay: Oral tablets in patients with rheumatoid arthritis; type: in vivo, patient; conditions: tablet, orally two times daily
Procedure: as §1

[4] = tested on: rheumatoid arthritis or osteoarthritis; assay: Oral capsules in patients with rheumatoid arthritis or osteoarthritis; type: in vivo, patient; conditions: capsule, orally once a day
Procedure: Capsules are prepared by conventional methods, comprised as follows: […]

Row | Structure (SMILES) | Percent Inhibition at 100 mg/kg dose p.o. [1] | ED35 [1] | benefit in osteoarthritis patient [2] | reduction of inflammation in rheumatoid arthritis patient [3] | reduction of symptomology in rheumatoid arthritis or osteoarthritis patient [4]
1 | C#CCCCC(=O)c1cc(C(C)(C)C)c2c(c1)C(C)(C)C(O)O2 (stereo not drawn) [Compound 13C] | 53.2% | 12.9 mg/kg |  |  | 
2 | C#CC(O)CCC(=O)c1cc(C(C)(C)C)c2c(c1)C(C)(C)CO2 (stereo not drawn) [Compound 8D] | 60.8% | 1.6 mg/kg |  |  | 
3 | C#CCCCC(=O)c1cc(C(C)(C)C)c2c(c1)C(C)(C)CO2 [Compound 8C] | 48.8% | 2.4 mg/kg | significant benefit | significantly reduces the inflammation | substantially reduces the symptomology
